The source of these data is ChEMBL document CHEMBL5241094 (J Med Chem, 2021).

Series [1] in a line: in vivo. The settings on record: C57BL/6, mouse, iv, 0.2 mg/kg.
Series [2] can be described thus: in vivo. Particulars: C57BL/6, mouse, iv, 0.2 mg/kg. The source holds these as a separate data set.
Series [3] in a line: physchem. The settings on record: PBS buffer, pH 7.4.
Series [4] can be described thus: Oral bioavailability in C57/BL6 mouse at 30 mg/kg administered as homogeneous suspension in 0.5% methocel/0.25% tween20 in 50 mM acetate buffer (pH 5.5) and measured after 2 hrs by HPLC-MS/MS analysis. Format: ADME, organism-based. The settings on record: in vivo.

≈ marks a conversion by molar mass, not a printed value.

For `CCOc1ccc(S(=O)(=O)Nc2ccccc2C#Cc2ccc(C(=O)O)nc2)c2ncccc12`, the clearance (in general, a measure of how efficiently the substance is removed, as volume per time) at 2 h in series [1] was 10 mL/min/kg. Further, in series [2], the Vd (usually the apparent volume that relates the amount in the body to the concentration in plasma or blood) at 2 h was determined as 0.4 L/kg.

`COc1ccc(S(=O)(=O)Nc2ccccc2C#Cc2ccc(C(=O)O)nc2)c2ncccc12`: in series [1], the clearance at 2 h was 6.67 mL/min/kg. In series [2], the Vd at 2 h came out at 0.6 L/kg. Besides, the solubility (usually the concentration that dissolves in the medium under given conditions) at 24 h in series [3] is 445 µg/mL (≈ 968 µM).

On to `Cc1cc(C#Cc2ccccc2NS(=O)(=O)c2c(C)ccc3cccnc23)cnc1C(=O)O`, for which the bioavailability (as a rule, the share of a dose that reaches the circulation, judged against a reference dose that is usually intravenous) in series [4] came to 45%. This compound gave a clearance at 2 h in series [1] of 31.7 mL/min/kg. In series [2], this compound registered a Vd at 2 h of 1.9 L/kg. Further, the concentration in solution in series [3] (solubility at 24 h) came to 384 µg/mL (≈ 839 µM).
